Data on 30 compounds can be found in ChEMBL document CHEMBL3421627, “Synthesis and biological evaluation of novel pyrazoline derivatives as potent anti-inflammatory agents” (Bioorg Med Chem Lett, 2015).

For orientation: inhibition means the percentage by which the read-out fell short of the control. As usually defined, the IC50 is the concentration needed to halve the response being measured. A word on the inhibition in vivo: it is the drop in the measured response relative to a control, in per cent.

For test [1], the system named is RAW264.7. As to the kind of experiment: Anti-inflammatory activity in mouse RAW264.7 cells assessed as inhibition of LPS-induced nitric oxide production at 10 uM pre-incubated for 2 hrs before LPS stimulation for 18 hrs by Griess reagent based colorimetric method. It is filed as functional. (In general: Nitrite, measured by Griess reagent, commonly stands in for NO production.)

Test [2] concerns the target T1, Nitric oxide synthase, inducible (Mus musculus, UniProt P29477).
T1 sequence (P29477 whole entry): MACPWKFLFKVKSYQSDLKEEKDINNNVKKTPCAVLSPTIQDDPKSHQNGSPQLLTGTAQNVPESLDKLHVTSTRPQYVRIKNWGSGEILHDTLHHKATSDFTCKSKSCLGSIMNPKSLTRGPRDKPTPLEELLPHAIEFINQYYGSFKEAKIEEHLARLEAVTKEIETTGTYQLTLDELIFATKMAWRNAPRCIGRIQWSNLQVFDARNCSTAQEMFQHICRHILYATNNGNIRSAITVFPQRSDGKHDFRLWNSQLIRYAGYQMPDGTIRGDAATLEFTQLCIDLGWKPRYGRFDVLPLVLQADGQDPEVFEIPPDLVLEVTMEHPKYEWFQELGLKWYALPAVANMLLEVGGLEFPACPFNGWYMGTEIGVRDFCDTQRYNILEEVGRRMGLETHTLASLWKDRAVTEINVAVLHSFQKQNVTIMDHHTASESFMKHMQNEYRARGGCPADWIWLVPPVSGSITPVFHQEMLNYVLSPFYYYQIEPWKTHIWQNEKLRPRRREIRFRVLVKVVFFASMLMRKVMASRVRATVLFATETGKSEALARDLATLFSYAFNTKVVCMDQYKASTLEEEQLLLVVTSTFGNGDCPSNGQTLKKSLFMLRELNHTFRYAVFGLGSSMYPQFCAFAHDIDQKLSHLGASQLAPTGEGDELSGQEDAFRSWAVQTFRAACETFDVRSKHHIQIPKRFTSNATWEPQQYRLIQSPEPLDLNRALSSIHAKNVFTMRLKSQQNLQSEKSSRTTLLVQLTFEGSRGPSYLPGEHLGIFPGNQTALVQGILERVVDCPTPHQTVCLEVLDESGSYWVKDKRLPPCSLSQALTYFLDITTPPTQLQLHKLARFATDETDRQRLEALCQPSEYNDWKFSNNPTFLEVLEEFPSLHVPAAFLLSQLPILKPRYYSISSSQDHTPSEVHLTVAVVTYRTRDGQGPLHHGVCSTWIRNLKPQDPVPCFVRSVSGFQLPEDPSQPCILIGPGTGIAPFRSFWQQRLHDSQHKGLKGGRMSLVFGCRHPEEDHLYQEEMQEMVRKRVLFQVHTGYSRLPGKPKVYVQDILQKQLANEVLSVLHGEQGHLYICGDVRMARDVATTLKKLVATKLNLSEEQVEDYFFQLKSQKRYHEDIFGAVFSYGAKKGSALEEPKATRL
As to the kind of experiment: Inhibition of iNOS in LPS-stimulated mouse RAW264.7 cells using L-Arginine substrate incubated for 2 hrs by fluorescence spectrometry. It is filed as cell-based.

Test [3] relates to RAW264.7. As to the kind of experiment: Cytotoxicity against mouse RAW264.7 cells assessed as reduction in cell viability after 24 hrs in presence of LPS by MTT assay. It is filed as cell-based. As to conditions: RAW264.7, 24 h.
Test [4] relates to RAW264.7. As to the kind of experiment: Cytotoxicity against mouse RAW264.7 cells assessed as reduction in cell viability after 24 hrs in absence of LPS by MTT assay. It is filed as cell-based. Conditions: RAW264.7, 24 h.
Test [5] concerns Mus musculus. As to the kind of experiment: Anti-inflammatory activity in ICR mouse model of carrageenan-induced edema assessed as inhibition of paw thickness at 10 mg/kg, ip. It is filed as functional. Conditions: route intraperitoneal. Background: The carrageenan paw model is a standard test of acute inflammation.
Test [6] deals with Mus musculus. As to the kind of experiment: Anti-inflammatory activity in ICR mouse model of carrageenan-induced edema assessed as inhibition of paw thickness at 25 mg/kg, ip. It is filed as functional, organism-based. Details: dose 25 mg/kg.
The test system of test [7] is Mus musculus. As to the kind of experiment: Anti-inflammatory activity in ICR mouse model of carrageenan-induced edema assessed as inhibition of paw thickness at 50 mg/kg, ip. It is filed as functional. As to conditions: route intraperitoneal.
For test [8], the system named is Mus musculus. As to the kind of experiment: Anti-inflammatory activity in ICR mouse model of adjuvant-induced arthritis assessed as reduction in arthritis severity scores at 25 and 50 mg/kg, po dosed once daily from day 17 after vaccination. It is filed as functional, organism-based. The arrangement: dose 50 mg/kg.
The subject of test [9] is Mus musculus. As to the kind of experiment: Anti-inflammatory activity in ICR mouse model of adjuvant-induced arthritis assessed as reduction in histopathological changes at 50 mg/kg, po dosed once daily from day 17 after vaccination by H and E staining method. It is filed as functional, organism-based. Details: dose 50 mg/kg.

Activity calls are given as the source filed them. The rule behind the calls is not given here. Some results are limits rather than exact numbers.

For `COc1ccc(C2=NN(c3ccc(C#N)cc3)C(c3cc(OC)c(OC)c(OC)c3)C2)c2c1C=CC(C)(C)O2` (configuration not stated), the inhibition at 10 µM in test [1] turned out to be 40.8%.
Same read-out and setting: with `COc1ccc(C2=NN(C(=O)CCCl)C(c3cc(OC)c(OC)c(OC)c3)C2)c2c1C=CC(C)(C)O2` (configuration not stated) the figure was 62.1%; with `COc1ccc(C2=NN(c3ccc(F)cc3)C(c3cc(OC)c(OC)c(OC)c3)C2)c2c1C=CC(C)(C)O2` (configuration not stated), 30.8%; with `COc1ccc(C2=NN(C(=O)C(C)C)C(c3cc(OC)c(OC)c(OC)c3)C2)c2c1C=CC(C)(C)O2` (configuration not stated), 54.2%.
Consider `COc1ccc(C2=NN(C(=O)c3ccccc3C(F)(F)F)C(c3cc(OC)c(OC)c(OC)c3)C2)c2c1C=CC(C)(C)O2` (configuration not stated), for which the inhibition at 10 µM in test [1] came to 18.9%.
Consider `COc1ccc(C2=NN(C(=O)c3ccc(C(F)(F)F)cc3)C(c3cc(OC)c(OC)c(OC)c3)C2)c2c1C=CC(C)(C)O2` (configuration not stated), for which the inhibition at 10 µM in test [1] was found to be 23.1%.
On the same count and under the same terms, with `COc1ccc(C2=NN(c3ccc(C(F)(F)F)cc3)C(c3cc(OC)c(OC)c(OC)c3)C2)c2c1C=CC(C)(C)O2` (configuration not stated) the figure was 14.4%.
As for `COc1ccc(C2=NN(C(=O)c3cc(OC)c(OC)c(OC)c3)C(c3cc(OC)c(OC)c(OC)c3)C2)c2c1C=CC(C)(C)O2` (configuration not stated), the inhibition at 10 µM in [1] worked out at 57.2%.
On the same count and under the same terms, with `COc1ccc(C2=NN(S(=O)(=O)c3ccc(C)cc3)C(c3cc(OC)c(OC)c(OC)c3)C2)c2c1C=CC(C)(C)O2` (configuration not stated) the figure was 35.9%; with `CCCS(=O)(=O)N1N=C(c2ccc(OC)c3c2OC(C)(C)C=C3)CC1c1cc(OC)c(OC)c(OC)c1` (configuration not stated), 40.8%.
On the same count and under the same terms, the figure for `COc1ccc(C2=NN(C(=O)c3ccc(Cl)cc3)C(c3cc(OC)c(OC)c(OC)c3)C2)c2c1C=CC(C)(C)O2` (configuration not stated) is 34.7%.
The same measure, in the same setting: the figure for `COc1ccc(C2=NN(c3ccc(C(=O)O)cc3)C(c3cc(OC)c(OC)c(OC)c3)C2)c2c1C=CC(C)(C)O2` (configuration not stated) is 19.4%.
Regarding `COc1ccc(C2=NN(S(=O)(=O)c3cc(C)cc(C)c3)C(c3cc(OC)c(OC)c(OC)c3)C2)c2c1C=CC(C)(C)O2` (configuration not stated), the inhibition at 10 µM in test [1] came out at 26.9%.
For the compound `COc1ccc(C2=NN(C(=O)c3cccc(F)c3)C(c3cc(OC)c(OC)c(OC)c3)C2)c2c1C=CC(C)(C)O2` (configuration not stated), the inhibition at 10 µM in test [1] was 35.1%.
On the same count and under the same terms, the figure for `COc1ccc(C2=NN(S(=O)(=O)c3ccc([N+](=O)[O-])cc3)C(c3cc(OC)c(OC)c(OC)c3)C2)c2c1C=CC(C)(C)O2` (configuration not stated) is 41%.
Take `COc1ccc(C2=NN(C(C)=O)C(c3cc(OC)c(OC)c(OC)c3)C2)c2c1C=CC(C)(C)O2` (configuration not stated): the inhibition at 10 µM in test [1] is 89.8%. Besides, the values for the IC50 in [2], in test [3] and in test [4] were 7.3 µM, over 100 µM and over 100 µM, respectively.
On to `COc1ccc(C2=NN(C(=O)c3cccc(C(F)(F)F)c3)C(c3cc(OC)c(OC)c(OC)c3)C2)c2c1C=CC(C)(C)O2` (configuration not stated), for which the inhibition at 10 µM in [1] was determined as 22.4%.
On to `COc1ccc2c(c1)c(CC(=O)O)c(C)n2C(=O)c1ccc(Cl)cc1` [INDOMETHACIN], for which the inhibition at 10 µM in test [1] stood at 60.6%. Moreover, the IC50 turned out to be 4.5 µM in [2], 9.2 µM in [3] and 10.7 µM in test [4]. The inhibition in vivo at 10 mg/kg in test [5] came out at 32%.
`COc1ccc(C2=NN(C(=O)c3cccc(Cl)c3)C(c3cc(OC)c(OC)c(OC)c3)C2)c2c1C=CC(C)(C)O2` (configuration not stated): the inhibition at 10 µM in test [1] came out at 29.1%.
Turning to `COc1ccc(C2=NN(S(=O)(=O)C3CC3)C(c3cc(OC)c(OC)c(OC)c3)C2)c2c1C=CC(C)(C)O2` (configuration not stated), in test [1], the inhibition at 10 µM worked out at 31.9%.
Turning to `COc1ccc(C2=NN(c3ccc([N+](=O)[O-])cc3)C(c3cc(OC)c(OC)c(OC)c3)C2)c2c1C=CC(C)(C)O2` (configuration not stated), the inhibition at 10 µM in test [1] amounted to 15.7%.
Take `COc1ccc(C2=NN(C(=O)c3ccc(F)cc3)C(c3cc(OC)c(OC)c(OC)c3)C2)c2c1C=CC(C)(C)O2` (configuration not stated): in [1], the inhibition at 10 µM was found to be 17.5%.
Same read-out and setting: with `COc1ccc(C2=NN(C(=O)c3ccccc3F)C(c3cc(OC)c(OC)c(OC)c3)C2)c2c1C=CC(C)(C)O2` (configuration not stated) the figure was 27.8%.
Consider `COc1ccc(C2=NN(C(=O)CCl)C(c3cc(OC)c(OC)c(OC)c3)C2)c2c1C=CC(C)(C)O2` (configuration not stated), for which, in test [1], the inhibition at 10 µM turned out to be 96.7%. Further, the IC50 in [2] came to 2.5 µM; in test [3], 19.3 µM; in [4], 30.8 µM.
As to `COc1ccc(C2=NN(S(=O)(=O)c3ccc(F)cc3)C(c3cc(OC)c(OC)c(OC)c3)C2)c2c1C=CC(C)(C)O2` (configuration not stated), the inhibition at 10 µM in test [1] was 23.2%.
On the same count and under the same terms, with `CCS(=O)(=O)N1N=C(c2ccc(OC)c3c2OC(C)(C)C=C3)CC1c1cc(OC)c(OC)c(OC)c1` (configuration not stated) the figure was 42.5%.
Consider `COc1ccc(C(=O)N2N=C(c3ccc(OC)c4c3OC(C)(C)C=C4)CC2c2cc(OC)c(OC)c(OC)c2)cc1` (configuration not stated), for which the inhibition at 10 µM in [1] worked out at 78%. Besides, the IC50 in test [2] was 24.8 µM; in [3], over 100 µM; in test [4], over 100 µM. Further, the inhibition result in test [6] and in test [9] was “Active” throughout. Also, in test [7], the inhibition in vivo at 50 mg/kg amounted to 54.2%. Besides, the inhibition result in [8] was “Dose-dependent effect”.
As for `COc1ccc(C2=NNC(c3cc(OC)c(OC)c(OC)c3)C2)c2c1C=CC(C)(C)O2` (configuration not stated), in [1], the inhibition at 10 µM came out at 49.2%.
`CCC(=O)N1N=C(c2ccc(OC)c3c2OC(C)(C)C=C3)CC1c1cc(OC)c(OC)c(OC)c1` (configuration not stated): the inhibition at 10 µM in test [1] came to 65.9%.
Still for that read-out and setting: the figure for `COc1ccc(C2=NN(c3ccc(S(N)(=O)=O)cc3)C(c3cc(OC)c(OC)c(OC)c3)C2)c2c1C=CC(C)(C)O2` (configuration not stated) is 30.5%.
